Patent US9675627B2, “Dosing regimens for treating and/or preventing cerebral amyloidoses” (Amicus Therapeutics, Inc., priority 2014, dated 2017)

Assays:
β-hex [1] = target: T1, β-hex (Mus musculus, UniProt P20060); assay: Proof-of-concept study: brain β-hex levels; type: in vivo, Dutch APP^E693Q transgenic mice; settings: 3-month course, dose-dependent
T1 construct: from tissue; host or cells: brain of Dutch APP E693Q transgenic mice
T1 sequence (P20060 32-536): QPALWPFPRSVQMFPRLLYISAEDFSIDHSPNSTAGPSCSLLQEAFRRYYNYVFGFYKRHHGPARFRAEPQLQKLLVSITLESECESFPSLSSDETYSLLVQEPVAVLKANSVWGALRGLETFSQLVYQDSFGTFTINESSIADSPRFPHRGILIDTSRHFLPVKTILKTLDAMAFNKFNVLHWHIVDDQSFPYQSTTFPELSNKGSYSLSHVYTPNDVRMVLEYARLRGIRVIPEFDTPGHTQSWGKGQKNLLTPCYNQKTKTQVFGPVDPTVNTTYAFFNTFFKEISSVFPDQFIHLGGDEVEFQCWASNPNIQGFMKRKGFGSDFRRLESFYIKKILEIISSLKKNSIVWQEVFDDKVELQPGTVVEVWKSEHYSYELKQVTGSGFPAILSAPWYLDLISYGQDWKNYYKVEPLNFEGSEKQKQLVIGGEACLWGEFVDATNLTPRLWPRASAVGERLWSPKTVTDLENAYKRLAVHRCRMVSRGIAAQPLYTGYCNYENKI
Description: (§1) The generation and characterization of Dutch APPE693Q mice transgenic mice is described in Gandy, S., et al. Days to criterion as an indicator of toxicity associated with human Alzheimer amyloid-beta oligomers. Annals of neurology 68, 220-230 (2010). 3-month-old male Dutch APP^E693Q mice transgenic mice were orally gavaged 5 days/week with either vehicle (water) (n=15) or 3, 10, 30 or 100 mg/kg AdDNJ for 3 months (n=13). All animal studies were approved and conducted in accordance with the Institutional Animal Care and Usage Committee. Mice were kept in a pathogen-free environment, on a 12-hour light/dark cycle and given ad libitum access to food and water. At 6 month of age treatment groups, and a 3-month-old untreated baseline group (n=15), were cognitively assessed in the NOR, EPM and FC tests. 48 hours following the final dose mice were perfused with ice-cold 1×PBS. The brain was removed and dissected into two hemispheres. One half was snap-frozen on dry ice and stored at −80° C. for biochemistry; the other half was post-fixed in 4% paraformaldehyde then sagittally sectioned on a vibratome into 30 μm sections and stored at 4° C. in storage buffer until histological analyses.

β-hex [2] = assay: Proof-of-concept study: brain β-hex levels; type: in vivo, Dutch APP^E693Q transgenic mice; settings: 3-month course
Description: as §1

β-hex [3] = target: T2, β-hex; assay: β-hex enzymatic inhibition in fibroblast lysate (4-MU substrate); type: biochemical, human
T2 construct: other: pH 5; other: pH 7
Text: Enzymatic activity measurements were done in duplicate.

human skin fibroblasts = assay: Cell viability, tetrazolium-formazan conversion; type: cell-based; settings: concentrations as high as 1 mM, up to 120 hours
Description: Viability of human fibroblast (CRL2076) and human neuroblastoma (SH-SY5Y) cells was tested after prolonged exposure to varying concentrations of AdDNJ. In a 96-well plate, fibroblasts were incubated in complete media containing increasing concentrations of AdDNJ up to 1 mM for either 72 or 120 hours at 37° C. in a humidified 8% CO2 incubator. Living cells were quantified using a tetrazoliuim-formazan conversion method according to the manufacturer's instructions (Promega Non-Radioactive 96-well Titer assay, TB112). SH-SY5Y cells were tested in the same manner as fibroblasts but plated in collagen-coated plates (Nunc #152036). After 24 hour, 48 hour and 120 hour exposure to AdDNJ, living SH-SY5Y cells were quantified as described above. All dosing concentrations were done in triplicate.

Aβ = Aβ immunohistochemistry (mAb 6E10); type: in vivo, Dutch APP^E693Q transgenic mice; settings: 100 mg/kg, 3 months
Description: as §1
Aβ was assessed via free-floating immunohistochemistry using mAb 6E10 (1:1000, Covance) as previously described20. GAβ was assessed via free-floating immunohistochemistry using mouse anti-GAβ, clone 4396C (1:100), a gift from Dr. Katsuhiko Yanagisawa as previously described19. Images were captured on an Olympus BX61 upright microscope with an attached Olympus DP71 camera. Integrated density of GAβ staining was measured using Image J (National Institute of Health, Bethesda, Md.).

SMILES: CC(=O)NC1CNC(CO)[C@@H](O)C1O (stereo partly drawn) [AdDNJ, 2-acetamido-1,2-dideoxynojirimycin]
- brain β-hex B level (β-hex [1]): increased
- increase in total brain β-hex (β-hex [2]; 3-100 mg/kg oral 5 days/week, at the highest dose): up to 3 fold
- brain β-hex A&S level (β-hex [2]; dose-dependent): increased
- Ki (β-hex [3]; pH 5): 253 nM
- Ki (β-hex [3]; pH 7): 342 nM
- effect on cell viability (human skin fibroblasts): little or no effect on cell viability
- Aβ accumulation, CA1 region of the hippocampus (Aβ): no differences were observed
- Aβ accumulation, subiculum (Aβ): qualitative region-specific reduction of Aβ accumulation
- Aβ accumulation, visual cortex (Aβ): no differences were observed
